Where a SMILES comes first, the peptide text is derived from it. [ ]: non-standard residue; d: D form. The star is where a group is joined. ξ: configuration not given here. Palmitoyl = CCCCCCCCCCCCCCCC(=O)*; ξF = NC(Cc1ccccc1)C(=O)O
Columns and labels:
[1] = DLS particle size and zeta potential of nanoparticles; format: physicochemical; settings: zeta sizer, 25° C.
Method: First, FG and FH nanoparticle solutions with a concentration of 20 μM were prepared as follows. 0.01 mmol of FG (or FH) was weighed and dissolved in 1 mL of DMSO solution, and then diluted into 5 folds to a concentration of 2 mM, thus obtaining mother solution A. 10 μL of mother solution A was quickly added to 1 mL of water, and the resulting solution was then vortexed for 30 s to obtain a nanoparticle solution. Second, samples were made. 10 ul of FG (or FH) solution was added dropwise onto a copper mesh for 5 min, and the excess solution was removed with filter paper. 10 μL of uranyl acetate stain was added dropwise for 5 min, and the excess stain was removed with filter paper. Washing with 10 μl of deionized water was carried out once. The samples were dried in vacuum overnight. Finally, transmission electron microscopy observations were performed on an HT-7700 transmission electron microscope (Hitachi, Tokyo, Japan). Scale bar was 200 nm.
The particle size and zeta potential of FH and FG nanoparticles were measured with a zeta sizer (Nano ZZ90, Malvern, UK) at 25° C.

[2] = test system: OIR model mice; test: Fundus angiogenesis in OIR model, Isolectin B4 confocal detection; format: in vivo, mouse; settings: for percentage of abnormal blood vessels in the total retinal area (proportion of new blood vessels): 2 nmol injected into the vitreous on day 12, read on day 17
Method: Treatment group (OIR): After giving birth, 3-4 month old C57BL/6 mother mice were placed in an oxygen chamber with 75% oxygen together with 7 day old young mice, and the young mice and the mother mice were taken out on the 12th day of birth of the young mice. Immediately after the young mice were anesthetized, 2 nmol of FH, 2 nmol of FG, and 1 μg of Sema4D neutralizing antibody (BMA-12) (BMA-12, i.e., anti-Sema4D) were injected into the vitreous, and an equal volume of DMSO was used as a control. The young mice were then further raised in normal air for 5 days; the young mice were anesthetized on the 17th day of birth, and after cardiac perfusion with normal saline, the eyeballs were separated and then fixed, stained with Isolectin B4 overnight at 4° C., flatly spread on a glass slide, and photographed.
Control group (Normal): Young mice, grown with normoxia, were anesthetized on the 17th day of birth. After cardiac perfusion with normal saline, the eyeballs were taken out, and the retinas were peeled off and then fixed with 4% paraformaldehyde, stained with Isolectin B4 at 4° C. overnight, flatly spread on a glass slide, and photographed.
The results are shown in A in FIGS. 4A and 4B. Laser confocal was carried out to detect retinal angiogenesis, and ImageJ was carried out to calculate the ratio of retinal neovascularization clusters to the entire retinal area, that is, the proportion of new blood vessels. […] It can be seen from FIG. 4A that the treatment effect of FH is the best.

[3] = test system: OIR model mice; test: Evans blue leakage test, fundus vascular leakage; format: in vivo, mouse; settings: 2 nmol intravitreal
[4] = test system: primary mouse brain microvascular endothelial cells; test: Endothelial cell migration (transwell experiment); format: cell-based; settings: 20 μM, 24 h; for sSema4D-induced endothelial cell migration: sSema4D 1600 ng/mL
Method: The primary mouse brain microvascular endothelial cells were starved with 0.5% ECM for 4 to 6 h. The mouse brain microvascular endothelial cells were seeded in the upper layer of a 24-well transwell chamber (8 μm). 1% ECM medium containing FH (20 μM), FG (20 μM), and Sema4D neutralizing antibody (BMA-12) (2 μg/μL) (the concentration of sSema4D in the medium is 1600 ng/mL) was added to the lower chamber, and an equal volume of DMSO was added as control. The cells were incubated in a 5% CO2 incubator at 37° C. for 24 h. 24 h later, the cells on the bottom of the chamber were fixed with 4% paraformaldehyde and stained with crystal violet, and the endothelial cells that penetrated to the bottom of the chamber were counted under a microscope.

[5] = test system: mouse brain microvascular endothelial cells; test: Endothelial cell leakage (transmembrane resistance); format: cell-based; settings: 20 μM, 36 h; for sSema4D-induced endothelial cell leakage: sSema4D 1600 ng/mL
Method: A layer of fibronectin was first applied to coat the upper layer of a 24-well transwell chamber (0.4 um) and incubated at room temperature for 1 h; after coating, the mouse brain microvascular endothelial cells were seeded, and cultured for 5 days until the cells were full, and then FH (20 μM), FG (20 μM), and Sema4D neutralizing antibody (BMA-12) (2 μg/μL) were added to the medium (the concentration of sSema4D in the medium was 1600 ng/mL), respectively. An equal volume of DMSO was added as a control, and ECM was used as a blank control. After incubation for 36 h, the resistance value was measured by a cell transmembrane resistance measuring instrument.

[6] = In vivo imaging of small animals, entry into vitreous humor; design: species or system mouse; settings: eye drops (10 μL, 20 μM, three times at 1 h intervals) and vitreous injection (1 μl, 20 μM)
Method: 10 μL of FH and FG eye drops (with the concentration of 20 μM, the solvent therein was artificial tears) were instilled on the eyeball surface of mice (8-week-old C57 male mice), once at an interval of 1 h. One hour after the third eye drop, the mice were anesthetized to have cardiac perfusion, the eyeballs of the mice were taken out, the connective tissue on the eye surface was trimmed, and the eyeballs were washed with PBS solution for several times to remove the nano eye drops from the surface of the eyeballs. The eyeball was placed in a small animal imager (at emission wavelength of 535 nm and excitation wavelength of 490 nm) for image acquisition.
Mice (8-week-old C57 male mice) were anesthetized with 4.3% chloral hydrate (0.01 ml/g), and antibiotic eye drops (levofloxacin eye drops), ocular surface anesthetics (Obucaine hydrochloride eye drops) were instilled before the surgery. The head position of the mouse was adjusted to keep the eyeball at the level of the corneal limbus. A small incision was made 1 mm behind the corneal limbus with an insulin injection needle, and 1 μl of nanomedicine FH (20 μM, FG (20 μM) or solvent was injected into the vitreous cavity along the small incision with a Hamilton 33 G syringe); the needle tip entered vertically and then tilted, and after pushing, the needle was retained for 0.5 to 1 min, and the needle was then pulled out quickly. […]

[7] = target: T1, sSema4D (Mus musculus, UniProt O09126); test: ELISA of sSema4D in vitreous humor after eye drops; format: in vivo; design: release and collect the vitreous humor; from tissue; host or cells: vitreous humor of C57 mice; settings: C57 mice, 10 μL of 20 μM eye drops, morning and evening, 3 days
T1 sequence (O09126 24-733 limits assumed): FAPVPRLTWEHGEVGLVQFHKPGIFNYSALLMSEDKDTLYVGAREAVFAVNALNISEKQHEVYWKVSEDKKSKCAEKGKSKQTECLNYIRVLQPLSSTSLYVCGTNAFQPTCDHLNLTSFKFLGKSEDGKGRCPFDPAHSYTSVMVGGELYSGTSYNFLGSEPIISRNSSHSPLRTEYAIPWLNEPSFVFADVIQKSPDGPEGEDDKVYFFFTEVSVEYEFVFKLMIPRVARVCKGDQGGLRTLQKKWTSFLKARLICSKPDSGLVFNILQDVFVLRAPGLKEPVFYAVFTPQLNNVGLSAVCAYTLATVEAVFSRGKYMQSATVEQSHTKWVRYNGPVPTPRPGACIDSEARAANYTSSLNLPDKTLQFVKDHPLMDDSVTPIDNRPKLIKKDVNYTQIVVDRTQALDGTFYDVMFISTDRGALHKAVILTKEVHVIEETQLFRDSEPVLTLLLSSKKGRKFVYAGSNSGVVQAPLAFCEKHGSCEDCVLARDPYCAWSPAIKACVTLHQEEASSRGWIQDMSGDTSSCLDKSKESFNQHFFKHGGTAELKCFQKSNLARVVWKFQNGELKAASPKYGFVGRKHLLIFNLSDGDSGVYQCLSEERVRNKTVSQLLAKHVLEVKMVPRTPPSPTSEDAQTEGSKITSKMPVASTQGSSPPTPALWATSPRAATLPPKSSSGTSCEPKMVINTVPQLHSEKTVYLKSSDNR
Text: In this example, 8-week-old C57 male mice were used, with ten data points in each group, and each data point was the average of the experimental results of 5 mice.
The water on the eyeballs was then removed with filter paper to release and collect the vitreous humor. ELISA kit (Shanghai Yuanmu Biotechnology Co., Ltd.) was used to detect the expression of sSema4D protein in vitreous humor.
Control group was instilled with the same volume of PBS solution; vehicle group was instilled the same volume of artificial tears (Systane).

Row | charge (zeta potential) [1] | particle diameter [1] [nm] | entry into the vitreous humor of mice [6] | SMILES | percentage of abnormal blood vessels in the total retinal area (proportion of new blood vessels) [2] | treatment effect on fundus angiogenesis compared with Sema4D neutralizing antibody (BMA-12, 1 μg) ([2]; 2 nmol intravitreal) | treatment effect on fundus angiogenesis, ranking among treatments (FIG. 4A) ([2]; 2 nmol intravitreal) | treatment effect on fundus vascular leakage compared with anti-Sema4D (1 μg) [3] | vascular leakage of the fundus [3] | inhibition of endothelial cell migration compared with Sema4D neutralizing antibody (BMA-12, 2 μg/μL) [4] | sSema4D-induced endothelial cell migration [4] | effect on endothelial cell leakage compared with Sema4D neutralizing antibody (BMA-12, 2 μg/μL) [5] | sSema4D-induced endothelial cell leakage [5] | expression of sSema4D protein in the vitreous humor [7]
1 | +40.4 mV | 54.43±2.8 | entered the vitreous humor | CCCCCCCCCCCCCCCC(=O)NC(Cc1ccccc1)C(=O)N[C@@H](Cc1ccccc1)C(=O)N[C@H](C(=O)N[C@@H](CC(C)C)C(=O)N[C@@H](CCCCN)C(=O)N[C@@H](CCCCN)C(=O)N[C@@H](CCC(N)=O)C(=O)N[C@@H](CCCCN)C(=O)N[C@@H](CCCNC(=N)N)C(=O)N1CCC[C@H]1C(=O)N[C@@H](CCCNC(=N)N)C(=O)N[C@@H](Cc1c[nH]cn1)C(=O)O)C(C)C (stereo in doubt) [FH, hexadecanoyl-FFVLK-KQKRPRH] | reduce the percentage of abnormal blood vessels in the total retinal area | comparable | the best | comparable | can inhibit vascular leakage of the fundus | more effective | significantly inhibit | comparable | significantly inhibit | reduce the expression of sSema4D protein in the vitreous humor
2 | +44.8 mV | 57.67±2.6 | entered the vitreous humor | CCCCCCCCCCCCCCCC(=O)NC(Cc1ccccc1)C(=O)N[C@@H](Cc1ccccc1)C(=O)N[C@H](C(=O)N[C@@H](CC(C)C)C(=O)N[C@@H](CCCCN)C(=O)N[C@@H](CCCCN)C(=O)N[C@@H](CC(N)=O)C(=O)N[C@@H](CCCCN)C(=O)N[C@@H](C)C(=O)N[C@@H](C)C(=O)N[C@@H](CCCCN)C(=O)NCC(=O)O)C(C)C (stereo partly shown) [FG] (Palmitoyl-[ξF]FVLKKNKAAKG-OH) | reduce the percentage of abnormal blood vessels in the total retinal area | comparable | – | comparable | can inhibit vascular leakage of the fundus | more effective | significantly inhibit | comparable | significantly inhibit | reduce the expression of sSema4D protein in the vitreous humor

Source: US12297296B2, “Nano small peptide and its use in preparation of drugs for treating and preventing fundus vascular diseases” (FUTU Biotech Co., Ltd., priority 2021, dated 2025)
